# Source: the OligoGym collection
# These antisense oligonucleotides have a phosphorothioate backbone; sugars and methylation of C are not fully specified.
# Target: FADD
# Conditions: ASO
# Also: test concentration or dose not given here.
row,Sequence,remaining target (mRNA or protein) (fraction of control)
1,CTGTGTTCTTCCAGATTC,≥ 1
2,ACCAGGAACGGGTCCATG,0.92
3,GCCAGCCTTCTCCAATCT,0.62
4,CACCACAGCACCCCGCCT,0.95
5,GAACCAAAGTCCAGGCTG,≥ 1
6,GCTGGGCTACCTTCCTGG,≥ 1
7,CACACAGGTCTTCTTCCC,≥ 1
8,TCATCAGCACCTCACAGA,0.74
9,CTCCGGTGCCTGATTCAC,0.94
10,GGACCACGGCCAACCAGG,0.58
11,CCATCAGGACGCTTCGGA,0.93
12,ATGGGCTCTGGTGAAGGA,≥ 1
13,GTTGCGTTCTCCTTCTCT,0.76
14,GGCCCCACTCCTGTTCTG,0.52
15,ACACCGAGTGCAGCAGCA,0.82
16,GATGCTGTCGATCTTGGT,0.91
17,AAGATACGAGATCCCGCT,0.64
18,TCATAGTGAGGAAGAAAT,≥ 1
19,CTCCAGGTCGTTCTGCTC,0.65
20,CCCCACATTATCACATAT,0.9

row,Sequence,remaining target (mRNA or protein) (fraction of control)
1,GACAGGCTGGACGACACC,0.62
2,TGGAGTAACAGTGTGACT,0.64
3,CGCGCCCGAGGCATAGGA,0.75
4,AAGGAAGATTTAGAGAGT,0.72
5,GGTTCCAACTTTCCAACT,0.97
6,CTTCGCTCCGATTCCTGG,≥ 1
7,GCTCGCTGCTCGACAGGC,0.74
8,CCGGTGGCCTCCAAGGAA,≥ 1
9,TACCAGGTCAGCCACCAG,0.91
10,GCCCCTACTTAGCAGTCT,0.65
11,AGTTGTAAAGCTGTGTTT,0.57
12,CTCCAGCTTGCGCTTGAC,0.78
13,GTCTGAGACTTTGAGCTG,≥ 1
14,CCTGCTGGGTCTTCACAG,≥ 1
15,CTCCCGCACACGCTCTGT,≥ 1
16,CCAGCGGCCCAAGGATTC,≥ 1
17,TTTGATACAAAACAGTAA,0.42
18,CGCAGCTTGAGTTCAGAA,0.65
19,CATGGAGAAGAGGTCTAG,0.71
20,CCCCGCCTCGAAGTCGTC,0.82

# Target: MAP2K4
# Conditions: ASO
row,Sequence,remaining target (mRNA or protein) (fraction of control)
1,GAGATAATCACTTTTGAATT,≥ 1
2,GAGTAAACCTTGCTGTAGAT,0.73
3,ATATTTCCACTTCTGTCCAG,0.67
4,ATGGGAGAGCTGGGAGTAGC,≥ 1
5,ACCACTCACAGTGCTGCTTC,0.68
6,GCTGTGCAAGCTCTTCTCAC,0.63
7,GATCCTCATCTGGTCCAATG,0.6
8,CACACAATAGAACGGTCAGA,0.9
9,TTTAAACACTAGCGATTATG,≥ 1
10,GAAATATATAGCTGCTACAA,≥ 1
11,GTCTGATGTAGCAGCGATAT,0.53
12,GATATCAATCGACATACATG,0.83
13,TGATGTAGCAGCGATATCAA,0.72
14,GTGAAATCCCAGTGTTGTTC,0.91
15,CAGTCTCTCTATGTGTGGGT,0.69
16,GATTTTGCCTAAAATTTCTT,≥ 1
17,CAACTTCAGTGCTTTGCGTT,0.42

# Target: PTEN
# Conditions: ASO
row,Sequence,remaining target (mRNA or protein) (fraction of control)
1,TGTGAAACAACAGTGCCA,0.25
2,CAGATTAATAACTGTAGC,0.91
3,ATTGTTGCTGTGTTTCTT,0.36

# Target: RIPK1
# Conditions: ASO
row,Sequence,remaining target (mRNA or protein) (fraction of control)
1,GGTTAGTTCTGGCTGACG,≥ 1
2,ATCTGGTAAACCTTTTCT,0.99
3,TGGAAGTCATTATCAACA,≥ 1
4,ATTCGCTTCCCAGCAGAG,0.7
5,GGATCCAGTGGTCTTGTT,0.84
6,CAAGTTGAAGAGACTGCA,≥ 1
7,ATAAAGATGGTAGTTGGC,≥ 1
8,CCACTTCCCTCAGCTCAT,≥ 1
9,ACATCTGGCCTGTTCCCA,0.56
10,ATCTTAATGACATTCAAG,≥ 1
11,TGTCCAGTTCTGCACTCT,0.81
12,TTAAACTCTTCACGTCCT,0.85
13,TATGGCTCCTTATTTGCA,0.78
14,TTGTGCTGTCTAGTAGTG,≥ 1
15,GCCACATTCTGTCTGGGC,0.72
16,AGTCTGTTCATCATCTTC,0.96
17,AAAAGGGTCATGGGAGAC,≥ 1
18,TCCCAGCACTTTGGAAGG,≥ 1
19,ACTGGGATATTATGCAGA,0.98
20,CTGTGGCTGAATTTGACC,≥ 1

row,Sequence,remaining target (mRNA or protein) (fraction of control)
1,GTGCATCAGGTTGCCCTT,≥ 1
2,ATTTTATAGATTCATCTG,≥ 1
3,CTCTATGATGACGCCCAG,0.69
4,GGCATGGTGGGTGTATTT,≥ 1
5,TTGTGTATCACGCCTTTT,≥ 1
6,TGCTCCACATCTTAAAGG,0.75
7,TGAGGTTGGCTGGTGAGC,0.83
8,GAAGTTTGAGACCAGCCT,≥ 1
9,CCCTATCAGTGAGGACAG,≥ 1
10,CAATGATTTCCCAAATTA,≥ 1
11,CCATATAATTGTAGGCTC,≥ 1
12,CCCTGGGTTCTGTGGAAA,0.7
13,GTGCCTTTTCCCTCTGTA,0.84
14,GACCCATCCCAAGTCCCT,≥ 1
15,TATCAAAGATAGCTTGGT,≥ 1
16,CATGGTCAATTTCATCAA,≥ 1
17,CAGTGCTTTCCCAGATTT,0.94
18,CCATGTAGTAGAGGGTGC,≥ 1
19,TTTCCCCATTCTCCAGCT,0.85
20,ATTCTCTTCTTGTGGGTG,≥ 1

# Target: SMAD4
# Conditions: ASO
row,Sequence,remaining target (mRNA or protein) (fraction of control)
1,GTAGTCCACCATCCTGAT,≥ 1
2,AACATCACCTTCACCTTT,0.45
3,CCTTCACTATGGCTGCCC,0.3
4,CTGTATGGTAACACATTT,≥ 1
5,ATCCTTTGGAAACAGTGA,≥ 1
6,TGGATGAAAGATTACAAT,≥ 1
7,TAAAATCAGCAATACTGG,0.79
8,TAGGTAGAGTGACGCTGC,≥ 1
9,GACAGGCATCATTACTTG,≥ 1
10,CATACATAACAGGTGAAG,0.91
11,TTCACAAAACTCATCCTG,≥ 1
12,CAATGGCTTCTGTCCTGT,≥ 1
13,AGACACTATCACATTTTA,≥ 1
14,CAGTAAATCCATTCTGCT,≥ 1
15,TACAACTCGTTCGTAGTG,≥ 1
16,AAAGCAGAAGAAAAGTGA,≥ 1
17,GGCAGCAAACACATTTTC,≥ 1
18,ACTCTCTCCACCTTGTCT,0.57
19,CATAGGCGGGTGGTGCTG,≥ 1
20,TCTGTCTAAGTAGTAACT,≥ 1

row,Sequence,remaining target (mRNA or protein) (fraction of control)
1,GATGACACTGACGCAAAT,≥ 1
2,TTTGATGCTCTGTCTTGG,≥ 1
3,AATCCTTTCCGACCAGCC,0.26
4,GTGTTTCTTTGATGCTCT,≥ 1
5,GTGGACAACGATGGCTGT,≥ 1
6,TGACAAGTTCTGAAGAGG,≥ 1
7,CAGGTGGTAGTGCTGTTA,≥ 1
8,CATACTTGATGGAGCATT,≥ 1
9,TTTAAGGGATTCTCAATA,≥ 1
10,TTGGGAAAGTTGGCAGTG,≥ 1
11,TGAAGCCTCCCATCCAAT,0.9
12,ACAGAAGAATACAACTAC,≥ 1
13,TGACGCTGCTTTTAGTGT,≥ 1
14,GAATGAAGGAAAAGAAAT,≥ 1
15,ACCTTTCCCTATGAATGA,0.65
16,GTTTCTCCTAATCTTCAA,≥ 1
17,GAATTTCAATCCAGCAAG,≥ 1
18,CAGTAACAATAGGGCAGC,≥ 1
19,ACGATTACTTGGTGGATG,0.88
20,AACACCAATACTCAGGAG,≥ 1
